Where two headings read alike, the source gives them in different places.
Tested on: primary CLL cells (CLL PBMC)
Assay: Primary CLL cells apoptosis, viability, MCL-1/BCL-2 (flow cytometry)
Assay type: cell-based, human
Details: for IC50: Homo sapiens, CLL cell, read-out: IC50, absolute number of viable CLL PBMC
Procedure: The MEC-1 cell line was obtained from the DSMZ (Braunschweig, Germany) and was cultured in RPMI (10% fetal bovine serum). A LDC526 stock solution was prepared with DMSO, diluted and added to the cultures to reach the specified concentrations. Samples (percentage of CD19+CD5+ CLL cells >90%) of n=37 CLL patients (Table 1) and n=6 healthy normal donor controls were used for experiments after obtaining informed consent according to institutional guidelines, approved by the Ethics Commission of the University of Essen-Duisburg. Peripheral blood mononuclear cells (PBMC) were isolated using Lymphoprep ([…] Technologies, Cologne, Germany) density gradient centrifugation and were used directly for NSG transplantation or in vitro experiments. Untouched normal donor B cells were isolated with a B cell isolation kit (Miltenyi, Bergisch Gladbach, Germany) according to the manufacturer’s instructions. For in vitro experiments, cells were maintained in RPMI supplemented with 10% fetal bovine serum, penicillin and streptomycin.
Apoptosis and cell death were determined by using Annexin V (BD Biosciences, Heidelberg, Germany) and 4′,6-Diamidin-2-phenylindol (DAPI, Sigma-Aldrich) staining. Erythrocytes of murine peripheral blood samples were lysed with NH4Cl hypotonic solution. Single cell suspensions of murine spleens were prepared as previously described. Murine cells were stained with antibodies directed against murine CD3 (clone 145-2C11), CD5 (53-7.3) and CD19 (1D3), respectively. For the detection of human cells in NSG spleens antibodies against human CD3 (clone SK7), CD4 (SK3), CD5 (L17F12), CD8 (SK1), CD19 (J3-119 or SJ25C1) and CD45 (2D1) were used (purchased from BD Bioscience, Biolegend and Beckman Coulter). Flow cytometric analysis was carried out on a LSRII flow cytometer (BD Biosciences, Heidelberg, Germany). Flow cytometric data were analyzed with BD FACSDiva or FlowJo software (FLOWJO, LLC, Ashland, OR, USA). Intracellular staining for MCL-1 and BCL-2 (anti-MCL-1 [clone D2W9E, Cell Signaling Technology, Leiden, The Netherlands] and matched isotype control [clone DA1E, Cell Signaling Technology]; anti-BCL-2 [clone Bcl-2/100, BD Bioscience] and matched isotype control [clone MOPC-21, BD Bioscience]) within MEC-1 and primary CLL cells was performed with the FoxP3 / Transcription factor staining buffer set (eBioscience/Thermo Fisher Scientific, Dreieich, Germany) according to the manufacturer’s instructions. Before permeabilization and antibody incubation cells were stained with a fixable viability dye (eFluor 450, eBioscience/Thermo Fisher Scientific). Before adding the anti-MCL-1 and anti-BCL-2 antibodies permeabilized cells were blocked with 2% mouse serum and 2% rabbit serum (Sigma-Aldrich) in permeabilization buffer. Intracellullar murine lymphocyte staining for Bcl-2 was carried out with the BD Cytofix/Cytoperm kit according to the manufacturer’s instructions. A Hamster Anti-mouse Bcl-2 (clone 3F119, BD Biosciences) and a corresponding isotype control (clone A19-3) were used. Dead cells and doublets were excluded by and FSC/SSC gating and positive DAPI or eFluor 450 viability dye staining, respectively. To assess the impact of LDC526 on the cell-cycle status of MEC-1 cells we used the BrdU Flow Kit according to the manufacturer’s protocol (BD Bioscience). BrdU was added to the media 30 minutes before commencing the analysis.
Data were analyzed with GraphPad Prism 7 software. Differences were assessed by unpaired or paired Student t tests if not indicated otherwise. Two-sided probabilities of less than 0.05 were considered significant. Nonlinear regression sigmoidal dose-response curve fit was used to determine the IC50 values and to generate graphs.

[1] = 4 hours, increasing concentrations

Q: Which “apoptosis of primary CLL PBMCs (Annexin V)” value (4 hours, 500 and 1000 nM) does the source give for `COc1cc(F)ccc1-c1ncnc(Nc2cccc(CS(N)(=O)=O)c2)n1` [LDC526, (3-((4-(4-fluoro-2-methoxyphenyl)-1,3,5-triazin-2-yl)amino)phenyl)methane-sulfonamide] here?
A: significantly increased percentages of apoptosis

Q: What about the “BCL-2 levels in primary CLL cells” value [1] of the same compound?
A: not significantly altered

Q: And the “MCL-1 protein levels in primary CLL cells” value [1]?
A: significantly decreased MCL-1 protein levels

Q: What about the IC50 (24 hours incubation) of the same compound?
A: 0.34 µM

Q: And the IC50 (48 hours incubation)?
A: 0.28 µM

Q: What about the “LDC526-induced effect between prognostic CLL subgroups (FISH, CD38, Binet, therapy)” value (high-risk versus low-risk) of the same compound?
A: no statistically significant differences
